Measured values as given in patent US20240132431A1, “METHOD FOR ALKYLATING ACIDIC FUNCTIONAL GROUP” (Chugai Seiyaku Kabushiki Kaisha, priority 2021, published 2024).
Each block holds one compound with its values, some of them ahead of it.

Target: T1, Bcl-2 protein (Recombinant Human Bcl-2 Protein) (Homo sapiens, UniProt P10415)
T1 construct: purchased Novus NBP2-34889
Test: Binding evaluation of mixture library compounds to Bcl-2 using AS-MS (affinity selection mass spectrometry)
Details: for ASMS ratio (%) n = 1 / ASMS ratio (%) n = 2: ASMS Ratio(%)=(A−C)/B×100; for ASMS ratio (%) n = 1: replicate n = 1; for ASMS ratio (%) n = 2: replicate n = 2
In short: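 Affinity selection MS: Bcl-2 20 μM + 1200-cpd mixture, […]/cpd, Tris pH 7.4 buffer w/ Tween-20, DTT; 1 h 23° C dark; P-2 spin SEC; MeCN/MeOH extraction; RP LC/MS. ASMS Ratio(%) = (A−C)/B×100.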

[1] = AS-MS on the mixture of 1200 library compounds
[2] = AS-MS, mixture of 1200 compounds, Bcl-2

T1 sequence (P10415 whole entry): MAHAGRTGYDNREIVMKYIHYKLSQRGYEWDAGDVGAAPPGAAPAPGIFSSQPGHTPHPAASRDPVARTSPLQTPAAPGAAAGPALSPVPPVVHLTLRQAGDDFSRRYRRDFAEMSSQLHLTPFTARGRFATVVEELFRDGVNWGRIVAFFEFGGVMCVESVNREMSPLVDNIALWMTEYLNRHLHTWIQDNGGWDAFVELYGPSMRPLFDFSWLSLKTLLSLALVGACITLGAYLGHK

Compound: CCOc1cncc(-c2cc(CN3CCN(c4ccc(C(=O)NS(C)(=O)=O)nn4)CC3)cc(OC(C)C)c2)c1 [B2I084-01]
- ASMS ratio (%) (n = 1): −0.9%
- ASMS ratio (%) (n = 2): −1.5%

Compound: 4-[4-[2-[2-(5-Ethoxypyridin-3-yl)ethynyl]benzoyl]piperazin-1-yl]-N-propylbenzamide [B1M098-01]
- ASMS ratio (%) n = 1 [1]: 0.9%
- ASMS ratio (%) n = 2 [1]: 0.3%

Compound: CCOc1cncc(-c2cc(CN3CCN(c4ccc(C(=O)N(CC)CC)cc4)CC3)cc(OC(F)(F)F)c2)c1 [B4J064-01, 4-[4-[[3-(5-Ethoxypyridin-3-yl)-5-(trifluoromethoxy)phenyl]methyl]piperazin-1-yl]-N,N-diethylbenzamide]
- ASMS ratio (%) n = 1 (AS-MS, mixture library, Bcl-2): 1.6%
- ASMS ratio (%) n = 2 (AS-MS, mixture library, Bcl-2): 0.0%

Compound: 6-[4-[4-(3-Ethoxyphenyl)-3-methylbenzoyl]piperazin-1-yl]-N-propylpyridazine-3-carboxamide [B1M036-01]
- ASMS ratio (%) n = 1 [2]: 6.7%
- ASMS ratio (%) n = 2 [2]: −1.2%

Compound: CCOc1cncc(-c2ccc(CN3CCN(c4ccc(C(=O)NCC(F)(F)F)nn4)CC3)c(CC)c2)c1 [B1K076-01, 6-[4-[[4-(5-Ethoxypyridin-3-yl)-2-ethylphenyl]methyl]piperazin-1-yl]-N-(2,2,2-trifluoroethyl)pyridazine-3-carboxamide]
- ASMS ratio (%) n = 2 [2]: 0.0%

Compound: 4-[4-[[3-(5-Ethoxypyridin-3-yl)-5-(trifluoromethoxy)phenyl]methyl]piperazin-1-yl]-N-propylbenzamide [B1M034-01]
- ASMS ratio (%) n = 1 [2]: −0.3%
- ASMS ratio (%) n = 2 [2]: −0.2%

Compound: 6-[4-[5-[2-(3-Ethoxyphenyl)ethynyl]pyridine-3-carbonyl]piperazin-1-yl]-N-propylpyridazine-3-carboxamide [B1M001-01]
- ASMS ratio (%) n = 1 [2]: 0.0%
- ASMS ratio (%) n = 2 [2]: 0.0%

Compound: CCOc1cncc(-c2ccc(CN3CCN(c4ccc(C(=O)NS(=O)(=O)CC56CC7CC(CC(C7)C5)C6)nn4)CC3)cc2C)c1 [B2A074-01, N-(1-Adamantylmethylsulfonyl)-6-[4-[[4-(5-ethoxypyridin-3-yl)-3-methylphenyl]methyl]piperazin-1-yl]pyridazine-3-carboxamide]
- ASMS ratio (%) n = 1 (AS-MS, mixture library, Bcl-2): 9.2%
- ASMS ratio (%) n = 2 (AS-MS, mixture library, Bcl-2): 1.9%

Compound: CCOc1cncc(-c2ccc(CN3CCN(c4ccc(C(=O)NS(=O)(=O)CC56CC7CC(CC(C7)C5)C6)cc4)CC3)c(CC)c2)c1 [B2A050-01, N-(1-Adamantylmethylsulfonyl)-4-[4-[[4-(5-ethoxypyridin-3-yl)-2-ethylphenyl]methyl]piperazin-1-yl]benzamide]
- ASMS ratio (%) n = 1 (AS-MS, mixture library, Bcl-2): −1.1%
- ASMS ratio (%) n = 2 (AS-MS, mixture library, Bcl-2): 1.6%

Compound: CCOc1cccc(-c2cc(C(=O)N3CCN(c4ccc(C(=O)NS(C)(=O)=O)cc4)CC3)cc(C(C)(C)C)c2)c1 [B2I037-01, 4-[4-[3-tert-Butyl-5-(3-ethoxyphenyl)benzoyl]piperazin-1-yl]-N-methylsulfonylbenzamide]
- ASMS ratio (%) n = 1 (AS-MS, mixture library, Bcl-2): 0.0%
- ASMS ratio (%) n = 2 (AS-MS, mixture library, Bcl-2): 3.3%

Compound: CCOc1cncc(C#Cc2cc(C(=O)N3CCN(c4ccc(C(=O)NCC(F)(F)F)cc4)CC3)cc(C(F)(F)F)c2)c1 [B1K042-01, 4-[4-[3-[2-(5-Ethoxypyridin-3-yl)ethynyl]-5-(trifluoromethyl)benzoyl]piperazin-1-yl]-N-(2,2,2-trifluoroethyl)benzamide]
- ASMS ratio (%) n = 1 [2]: 5.0%
- ASMS ratio (%) n = 2 [2]: −0.1%

Compound: CCOc1cncc(C#Cc2cc(C(=O)N3CCN(c4ccc(C(=O)NS(=O)(=O)C(C)(C)C)nn4)CC3)cc(C(F)(F)F)c2)c1 [B2L020-01, N-tert-Butylsulfonyl-6-[4-[3-[2-(5-ethoxypyridin-3-yl)ethynyl]-5-(trifluoromethyl)benzoyl]piperazin-1-yl]pyridazine-3-carboxamide]
- ASMS ratio (%) (n = 1): 0.0%
- ASMS ratio (%) (n = 2): 0.0%

Compound: CCOc1cncc(-c2ccc(CN3CCN(c4ccc(C(=O)Nc5ccc(OC)cc5)cc4)CC3)c(CC)c2)c1 [B1O050-01]
- ASMS ratio (%) n = 1 [1]: 10.3%
- ASMS ratio (%) n = 2 [1]: −5.8%

Compound: CCCNC(=O)c1ccc(N2CCN(Cc3cc(OC(C)C)cc(-c4cccc(OCC)c4)c3)CC2)cc1 [B1M015-01]
- ASMS ratio (%) n = 1 [2]: −2.4%
- ASMS ratio (%) n = 2 [2]: −3.0%

Other lines, results leading:

- ASMS ratio (%) n = 1 [1]: 0.9%
- ASMS ratio (%) n = 2 [1]: 0.0%
Compound: CCOc1cncc(-c2cc(OC)c(CN3CCN(c4ccc(C(=O)N(C)CC56CC7CC(CC(C7)C5)C6)cc4)CC3)c(OC)c2)c1 [B3A060-01, N-(1-Adamantylmethyl)-4-[4-[[4-(5-ethoxypyridin-3-yl)-2,6-dimethoxyphenyl]methyl]piperazin-1-yl]-N-methylbenzamide]

- ASMS ratio (%) (n = 1): 0.0%
- ASMS ratio (%) (n = 2): 4.8%
Compound: CCOc1cncc(C#Cc2ccccc2C(=O)N2CCN(c3ccc(C(=O)NS(=O)(=O)c4ccc(NCCSc5ccccc5)c(C(F)(F)F)c4)cc3)CC2)c1 [B2R030-01, 4-[4-[2-[2-(5-Ethoxypyridin-3-yl)ethynyl]benzoyl]piperazin-1-yl]-N-[4-(2-phenylsulfanylethylamino)-3-(trifluoromethyl)phenyl]sulfonylbenzamide]

- ASMS ratio (%) (n = 1): 6.4%
- ASMS ratio (%) (n = 2): 0.0%
Compound: CCOc1cncc(C#Cc2cncc(C(=O)N3CCN(c4ccc(C(=O)NS(=O)(=O)c5ccc(NCCSc6ccccc6)c(C(F)(F)F)c5)cc4)CC3)c2)c1 [B2R032-01, 4-[4-[5-[2-(5-Ethoxypyridin-3-yl)ethynyl]pyridine-3-carbonyl]piperazin-1-yl]-N-[4-(2-phenylsulfanylethylamino)-3-(trifluoromethyl)phenyl]sulfonylbenzamide]

- ASMS ratio (%) (n = 1): 0.0%
- ASMS ratio (%) (n = 2): 0.0%
Compound: CCOc1cncc(-c2ccc(CN3CCN(c4ccc(C(=O)NS(=O)(=O)CCC(F)(F)F)nn4)CC3)c3ccccc23)c1 [B2N092-01]

- ASMS ratio (%) (n = 1): 9.1%
- ASMS ratio (%) (n = 2): −6.0%
Compound: CCOc1cccc(-c2cc(CN3CCN(c4ccc(C(=O)NS(=O)(=O)c5ccc(NCCSc6ccccc6)c(C(F)(F)F)c5)cc4)CC3)cc(C(F)(F)F)c2)c1 [B2R061-01, 4-[4-[[3-(3-Ethoxyphenyl)-5-(trifluoromethyl)phenyl]methyl]piperazin-1-yl]-N-[4-(2-phenylsulfanylethylamino)-3-(trifluoromethyl)phenyl]sulfonylbenzamide]

- ASMS ratio (%) n = 1 [1]: 2.5%
- ASMS ratio (%) n = 2 [1]: −2.9%
Compound: CCOc1cncc(-c2cc(C(=O)N3CCN(c4ccc(C(=O)N(C)CC56CC7CC(CC(C7)C5)C6)cc4)CC3)cc(C(C)(C)C)c2)c1 [B3A038-01, N-(1-Adamantylmethyl)-4-[4-[3-tert-butyl-5-(5-ethoxypyridin-3-yl)benzoyl]piperazin-1-yl]-N-methylbenzamide]

- ASMS ratio (%) n = 1 (AS-MS, mixture library, Bcl-2): −39.4%
- ASMS ratio (%) n = 2 (AS-MS, mixture library, Bcl-2): 0.0%
Compound: CCOc1cncc(-c2cc(OC)c(CN3CCN(c4ccc(C(=O)NS(=O)(=O)c5ccc(NCCSc6ccccc6)c([N+](=O)[O-])c5)nn4)CC3)c(OC)c2)c1 [B2Q086-01, 6-[4-[[4-(5-Ethoxypyridin-3-yl)-2,6-dimethoxyphenyl]methyl]piperazin-1-yl]-N-[3-nitro-4-(2-phenylsulfanylethylamino)phenyl]sulfonylpyridazine-3-carboxamide]

- ASMS ratio (%) n = 1 [1]: 11.6%
- ASMS ratio (%) n = 2 [1]: 3.1%
Compound: CCOc1cncc(-c2ccccc2CN2CCN(c3ccc(C(=O)N(C)CC45CC6CC(CC(C6)C4)C5)nn3)CC2)c1 [B3A072-01, N-(1-Adamantylmethyl)-6-[4-[[2-(5-ethoxypyridin-3-yl)phenyl]methyl]piperazin-1-yl]-N-methylpyridazine-3-carboxamide]
